# Laboratory results: paper PMC9358681 (Biochemical pharmacology, 2022)
# Like-named read-outs stand apart in the source and are kept apart here.
# Assays:
# A2A adenosine receptor [1] = molecular target: A2A adenosine receptor (Homo sapiens, UniProt P29274); assay: Radioligand binding, human A2A ([3H]CGS21680, HEK-293); settings: HEK-293, [3H]CGS21680
# A1 adenosine receptor [2] = molecular target: T1, A1 adenosine receptor (Homo sapiens, UniProt P30542); assay: Radioligand binding, human A1 ([3H]R-PIA, HEK-293); settings: HEK-293, [3H]R-PIA
# T1 sequence (P30542 1-326): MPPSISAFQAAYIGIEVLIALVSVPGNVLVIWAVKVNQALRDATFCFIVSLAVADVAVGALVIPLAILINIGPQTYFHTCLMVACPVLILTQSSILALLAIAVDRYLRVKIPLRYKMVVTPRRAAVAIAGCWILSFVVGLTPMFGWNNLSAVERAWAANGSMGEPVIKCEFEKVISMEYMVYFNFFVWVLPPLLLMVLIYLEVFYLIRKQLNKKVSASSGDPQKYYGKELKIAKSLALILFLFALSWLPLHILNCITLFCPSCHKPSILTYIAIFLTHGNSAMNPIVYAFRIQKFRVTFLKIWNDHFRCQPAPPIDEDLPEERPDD
# Text: (§1) The A2B receptor selectivity was generally low, especially at the rat A2B receptor.
# A3 adenosine receptor = molecular target: T2, A3 adenosine receptor (Homo sapiens, UniProt P0DMS8); assay: Radioligand binding, human A3 ([125I]I-AB-MECA, HEK-293); settings: HEK-293, [125I]I-AB-MECA
# T2 sequence (P0DMS8 1-318): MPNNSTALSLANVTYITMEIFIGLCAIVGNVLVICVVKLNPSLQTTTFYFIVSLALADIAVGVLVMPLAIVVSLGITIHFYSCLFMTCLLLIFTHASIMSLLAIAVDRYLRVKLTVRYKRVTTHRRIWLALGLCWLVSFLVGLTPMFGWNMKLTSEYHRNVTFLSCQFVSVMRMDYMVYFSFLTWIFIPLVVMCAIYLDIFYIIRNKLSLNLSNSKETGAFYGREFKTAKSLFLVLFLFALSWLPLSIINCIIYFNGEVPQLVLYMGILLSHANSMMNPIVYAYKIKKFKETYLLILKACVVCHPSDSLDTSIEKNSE
# Text: as §1
# A2B adenosine receptor [3] = molecular target: T3, A2B adenosine receptor (Rattus norvegicus, UniProt P29276); assay: Radioligand binding, rat A2B ([125I]I-ABOPX, HEK-293); settings: rat (r), HEK-293, [125I]I-ABOPX
# T3 sequence (P29276 1-332): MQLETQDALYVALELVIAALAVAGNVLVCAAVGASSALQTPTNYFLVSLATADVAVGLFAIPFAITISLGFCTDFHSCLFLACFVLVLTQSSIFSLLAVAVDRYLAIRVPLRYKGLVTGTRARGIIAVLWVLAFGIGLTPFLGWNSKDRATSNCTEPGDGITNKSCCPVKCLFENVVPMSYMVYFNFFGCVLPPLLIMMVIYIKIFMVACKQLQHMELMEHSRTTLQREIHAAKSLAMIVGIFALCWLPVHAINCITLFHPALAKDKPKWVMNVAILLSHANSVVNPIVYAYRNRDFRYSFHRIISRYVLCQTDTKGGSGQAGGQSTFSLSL
# A1 adenosine receptor [4] = molecular target: T4, A1 adenosine receptor (Rattus norvegicus, UniProt P25099); assay: Radioligand binding, rat A1 ([3H]R-PIA, HEK-293); settings: HEK-293, [3H]R-PIA
# T4 sequence (P25099 1-326): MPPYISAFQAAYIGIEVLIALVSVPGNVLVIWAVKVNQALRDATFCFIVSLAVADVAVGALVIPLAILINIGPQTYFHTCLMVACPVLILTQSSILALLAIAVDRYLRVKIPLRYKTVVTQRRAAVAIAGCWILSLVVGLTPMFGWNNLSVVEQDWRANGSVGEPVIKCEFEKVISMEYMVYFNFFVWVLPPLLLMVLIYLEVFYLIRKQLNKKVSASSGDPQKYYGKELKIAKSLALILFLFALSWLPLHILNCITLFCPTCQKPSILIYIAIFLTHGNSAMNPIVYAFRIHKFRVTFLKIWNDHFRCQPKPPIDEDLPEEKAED
# Text: as §1
# A2B adenosine receptor [5] = molecular target: T5, A2B adenosine receptor (Homo sapiens, UniProt P29275); assay: Radioligand binding, human A2B ([125I]I-ABOPX, HEK-293); settings: HEK-293, [125I]I-ABOPX
# T5 sequence (P29275 1-332): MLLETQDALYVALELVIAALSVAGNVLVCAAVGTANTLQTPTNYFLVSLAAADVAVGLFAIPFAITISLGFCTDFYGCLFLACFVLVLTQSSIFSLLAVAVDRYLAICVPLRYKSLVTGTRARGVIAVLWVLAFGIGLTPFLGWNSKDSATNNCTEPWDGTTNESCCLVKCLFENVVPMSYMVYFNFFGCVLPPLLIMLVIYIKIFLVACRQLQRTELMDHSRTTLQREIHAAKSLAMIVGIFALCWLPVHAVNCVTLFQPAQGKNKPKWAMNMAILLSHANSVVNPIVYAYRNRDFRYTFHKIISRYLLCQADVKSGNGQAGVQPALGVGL
# A2A adenosine receptor [6] = molecular target: A2A adenosine receptor (Rattus norvegicus, UniProt P30543); assay: Radioligand binding, rat A2A ([3H]CGS21680, HEK-293); settings: rat (r), HEK-293, [3H]CGS21680
# A2A adenosine receptor (Rattus norvegicus, UniProt P30543), sequence (P30543 whole entry): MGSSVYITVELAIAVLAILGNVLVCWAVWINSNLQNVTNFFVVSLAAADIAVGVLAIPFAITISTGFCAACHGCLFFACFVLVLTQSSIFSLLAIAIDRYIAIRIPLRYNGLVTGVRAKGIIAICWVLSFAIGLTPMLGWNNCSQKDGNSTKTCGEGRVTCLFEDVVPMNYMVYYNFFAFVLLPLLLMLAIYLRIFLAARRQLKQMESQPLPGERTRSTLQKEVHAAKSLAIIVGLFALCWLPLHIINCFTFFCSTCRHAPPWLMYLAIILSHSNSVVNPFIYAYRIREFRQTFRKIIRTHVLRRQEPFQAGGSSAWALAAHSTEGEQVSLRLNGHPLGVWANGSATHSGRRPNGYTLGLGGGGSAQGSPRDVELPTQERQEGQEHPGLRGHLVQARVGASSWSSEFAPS
# human A2BAR [7] = molecular target: T6, human A2BAR (Homo sapiens, UniProt P29275); assay: [3H]PSB-603 competition association assay; type: binding; settings: for RT: RT = 1/koff; for Kd: read-out: Kinetic KD (koff/kon); for koff: read-out: koff (converted); for kon: read-out: kon (converted)
# T6 construct: host or cells: CHO-spap
# T6 sequence (P29275 1-332): T5 sequence (P29275 1-332)
# Procedure: In all radioligand binding experiments, CHO-spap-hA2BAR membranes were thawed and homogenized using an Ultra Turrax homogenizer at 24,000 rpm (IKA-Werke GmbH & Co.KG, Staufen, Germany), diluted in assay buffer to the desired concentration (10–30 μg per well or Eppendorf tube). All materials were brought to 25 °C, 30 min prior to the experiment. ZM241385 (10 μM) was used to determine nonspecific binding (NSB).
# Addition of CHO-spap-hA2BAR membrane aliquots initiated the association. The amount of receptor-bound radioligand was determined at different time points up to 3 hr. After 3 hr the incubation was terminated and samples were obtained as described under “Displacement experiments”.
# All competition association data were globally fitted.
# human A2BAR [8] = molecular target: T6, human A2BAR; assay: [3H]PSB-603 displacement on CHO-spap-hA2BAR membranes; type: binding
# human A2BAR [9] = molecular target: T6, human A2BAR; assay: [3H]PSB-603 radioligand washout assay on membranes; type: binding; settings: 10 × IC50, 2 hr pre-incubation, 4x washed, 25 °C
# Procedure: Were performed at 25 °C and in a total volume of 400 μL. […] Subsequently, the samples were centrifuged at 13200 rpm (16 100g) at 4 °C for 5 min and the supernatant containing unbound ligand was removed. Pellets were resuspended in 1 mL of assay buffer, and samples were incubated for 10 min at 25 °C in the thermomixer. After four centrifugation and washing cycles in total, supernatant was discarded and the membranes were resuspended in a total volume of 400 μL containing 1.5 nM [^3H]PSB-603. After 2 hr at 25 °C incubations were terminated by rapid filtration through GF/C filters using a Brandel harvester and the samples were obtained as described under “Saturation binding experiments”.
# Both the washed and the unwashed conditions were assessed. For the washed condition, the unlabeled compounds were incubated with the target for 2 hr, followed by four wash and centrifugation cycles. Subsequently, [^3H]PSB-603 was co-incubated which led to competition of the radioligand with the unlabeled ligand still bound after the washing procedure. For the unwashed condition no washing was performed before the determination of radioligand displacement. Based on the experimental set-up, the long RT compound and the covalent ligand would be predicted to remain bound to A2BARs, as they would not be easily removed during the washing steps, and thus to result in lower radioligand binding.
# CHO-spap cells = assay: Label-free whole-cell assay on empty CHO-spap cells; type: cell-based; settings: NECA 10 pM – 1 μM
# Procedure: After maintaining at room temperature for about 30 min, the E-plate was placed into the recording station housed in a 37 °C and 5% CO2 incubator.
# [10] = competing ligand at 1.0-fold IC50, up to 3 hr, 25 °C
# [11] = […] [3H]PSB-603, 2 h, 25 °C, read-out: Ki (converted)
# A2A adenosine receptor (Homo sapiens, UniProt P29274), sequence (P29274 whole entry): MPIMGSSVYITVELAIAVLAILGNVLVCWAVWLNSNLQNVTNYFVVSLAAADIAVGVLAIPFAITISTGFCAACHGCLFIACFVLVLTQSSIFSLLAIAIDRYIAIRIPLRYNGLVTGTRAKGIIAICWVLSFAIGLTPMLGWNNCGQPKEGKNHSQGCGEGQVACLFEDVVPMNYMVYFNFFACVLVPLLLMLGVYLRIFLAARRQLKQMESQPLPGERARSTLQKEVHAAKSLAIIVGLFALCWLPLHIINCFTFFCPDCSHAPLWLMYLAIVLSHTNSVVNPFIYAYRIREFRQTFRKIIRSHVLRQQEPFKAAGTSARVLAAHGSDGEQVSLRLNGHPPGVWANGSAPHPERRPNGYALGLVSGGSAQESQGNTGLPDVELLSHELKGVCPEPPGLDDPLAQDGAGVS
Ki (A2A adenosine receptor [1]),Ki (A1 adenosine receptor [2]),Ki (A3 adenosine receptor),Ki (A2B adenosine receptor [3]),Ki (A1 adenosine receptor [4]),Ki (A2B adenosine receptor [5]),Ki (A2A adenosine receptor [6]),RT (human A2BAR [7]; [10]),Kd (human A2BAR [7]),koff (human A2BAR [7]),kon (human A2BAR [7]),Ki (human A2BAR [8]; [11]),SMILES,compound removed (washed away) during the washing procedure (human A2BAR [9]),Kinetic KD (koff/kon) (human A2BAR [7]; [10]),Ki (human A2BAR [8]; Ki),response to NECA (CHO-spap cells)
0.0644 ± 0.0212 µM,0.0273 ± 0.0049 µM,0.0639 ± 0.0165 µM,0.0211 µM,0.00523 µM,0.0085 ± 0.0011 µM,0.375 µM,6.1 ± 1.6 min,0.0075 ± 0.0039 µM,0.00273 s⁻¹,367000 M⁻¹ s⁻¹,0.0152 µM,"CCCn1c(=O)c2[nH]c(-c3ccc(OCC(=O)N[C@H](C)c4ccccc4)cc3)nc2n(CCC)c1=O [Compound 24, (R)-2-(4-(2,6-dioxo-1,3-dipropyl-2,3,6,7-tetrahydro-1H-purin-8-yl)phenoxy)-N-(1-phenylethyl)acetamide]",,,,
0.021 ± 0.0018 µM,0.0237 ± 0.0049 µM,0.156 ± 0.015 µM,0.0202 µM,0.0104 µM,0.0082 ± 0.0025 µM,0.165 µM,10 ± 2.3 min,0.0086 ± 0.003 µM,0.00162 s⁻¹,183000 M⁻¹ s⁻¹,0.00811 µM,"CCCn1c(=O)c2[nH]c(-c3ccc(OCC(=O)N[C@@H](C)c4ccccc4)cc3)nc2n(CCC)c1=O [Compound 25, (S)-2-(4-(2,6-dioxo-1,3-dipropyl-2,3,6,7-tetrahydro-1H-purin-8-yl)phenoxy)-N-(1-phenylethyl)acetamide]",,,,
,,,,,,,,,,,,"CCNC(=O)[C@H]1O[C@@H](n2cnc3c(N)ncnc32)[C@H](O)[C@@H]1O [NECA, 5^′-N-ethylcarboxamidoadenosine]",,,,No response

SMILES,Ki (A2A adenosine receptor [1]),Ki (A1 adenosine receptor [2]),Ki (A3 adenosine receptor),Ki (A2B adenosine receptor [3]),Ki (A1 adenosine receptor [4]),Ki (A2B adenosine receptor [5]),Ki (A2A adenosine receptor [6]),RT (human A2BAR [7]; [10]),Kd (human A2BAR [7]),koff (human A2BAR [7]),kon (human A2BAR [7]),Ki (human A2BAR [8]; [11]),compound removed (washed away) during the washing procedure (human A2BAR [9]),Kinetic KD (koff/kon) (human A2BAR [7]; [10]),Ki (human A2BAR [8]; Ki),response to NECA (CHO-spap cells)
"CCCn1c(=O)c2[nH]c(-c3ccc(OCC(=O)Nc4ccc(N=C=S)cc4)cc3)nc2n(CCC)c1=O [Compound 29, 2-(4-(2,6-dioxo-1,3-dipropyl-2,3,6,7-tetrahydro-1H-purin-8-yl)phenoxy)-N-(4-isothiocyanatophenyl)acetamide]",,,,,,,,Covalent mechanism (see text),,,,,18%,Covalent mechanism (see text),0.00928 µM,
